Where two headings read alike, the source gives them in different places.
How the values were obtained:
Test in all cases: In vitro competitive activity-based protein profiling (gel-based, FP-Rh or HT-01 probe)
Assay type in all cases: biochemical
MAGL = target: T1, MAGL (Mus musculus, UniProt O35678); conditions: for inhibition at 1 µM: 1 μM inhibitor; for inhibition at 10 µM: 10 μM inhibitor; for IC50: mouse brain membrane fraction or cell lysates, 30 min preincubation at 37° C., read-out: Mouse (IC50 value, nM) MAGL
T1 construct: Proteomes (mouse brain membrane fraction or cell lysates); from tissue; host or cells: mouse brain membrane fraction (or cell lysates, not specified)
T1 sequence (O35678 1-303): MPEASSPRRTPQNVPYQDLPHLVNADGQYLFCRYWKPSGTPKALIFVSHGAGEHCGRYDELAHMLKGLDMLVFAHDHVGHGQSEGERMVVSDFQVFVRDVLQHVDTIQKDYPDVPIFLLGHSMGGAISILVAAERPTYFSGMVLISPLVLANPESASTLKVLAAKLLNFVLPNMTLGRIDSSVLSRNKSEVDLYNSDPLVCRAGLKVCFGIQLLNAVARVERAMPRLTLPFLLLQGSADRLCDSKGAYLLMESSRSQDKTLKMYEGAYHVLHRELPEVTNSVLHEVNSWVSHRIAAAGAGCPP
Procedure, shortened: (§1)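 Mouse brain membrane proteome or cell lysate (1.0 mg/mL protein) was preincubated with inhibitor at varying concentrations for 30 min at 37° C, then labelled with FP-Rh or HT-01 for 30 min at 37° C. After SDS-PAGE, residual hydrolase activity was quantified as in-gel fluorescence of each band.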

FAAH = target: T2, FAAH (Mus musculus, UniProt O08914); conditions: for inhibition at 1 µM: 1 μM inhibitor, read-out: % Inhibition at 1 μM, B = FAAH; for inhibition at 10 µM: 10 μM inhibitor, read-out: % Inhibition at 10 μM, B = FAAH; for IC50: mouse brain membrane fraction or cell lysates, 30 min preincubation at 37° C., read-out: Mouse (IC50 value, nM) FAAH
T2 construct: Proteomes (mouse brain membrane fraction or cell lysates); from tissue; host or cells: mouse brain membrane fraction (or cell lysates, not specified)
T2 sequence (O08914 1-579): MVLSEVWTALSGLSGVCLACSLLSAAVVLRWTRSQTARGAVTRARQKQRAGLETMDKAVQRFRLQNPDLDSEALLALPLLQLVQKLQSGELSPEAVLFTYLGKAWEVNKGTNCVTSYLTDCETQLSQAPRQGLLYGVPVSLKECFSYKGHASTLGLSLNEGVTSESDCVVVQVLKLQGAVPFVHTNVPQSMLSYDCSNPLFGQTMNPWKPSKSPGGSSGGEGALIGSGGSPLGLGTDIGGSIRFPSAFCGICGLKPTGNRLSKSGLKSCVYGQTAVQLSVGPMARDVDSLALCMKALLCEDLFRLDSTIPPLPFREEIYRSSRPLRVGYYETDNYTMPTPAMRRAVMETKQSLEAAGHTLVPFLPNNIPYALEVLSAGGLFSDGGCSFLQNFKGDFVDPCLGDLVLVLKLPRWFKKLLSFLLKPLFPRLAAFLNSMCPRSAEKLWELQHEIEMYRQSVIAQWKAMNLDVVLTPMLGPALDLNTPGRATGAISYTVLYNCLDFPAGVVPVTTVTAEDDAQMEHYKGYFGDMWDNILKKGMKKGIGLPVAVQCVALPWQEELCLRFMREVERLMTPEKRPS
Procedure, shortened: as §1

PLA2G7 = target: T3, PLA2G7 (Mus musculus, UniProt Q60963); conditions: for inhibition at 1 µM: 1 μM inhibitor, read-out: % Inhibition at 1 μM, D = PLA2G7; for inhibition at 10 µM: 10 μM inhibitor, read-out: % Inhibition at 10 μM, D = PLA2G7
T3 construct: Proteomes (mouse brain membrane fraction or cell lysates); from tissue; host or cells: mouse brain membrane fraction (or cell lysates, not specified)
T3 sequence (Q60963 22-440): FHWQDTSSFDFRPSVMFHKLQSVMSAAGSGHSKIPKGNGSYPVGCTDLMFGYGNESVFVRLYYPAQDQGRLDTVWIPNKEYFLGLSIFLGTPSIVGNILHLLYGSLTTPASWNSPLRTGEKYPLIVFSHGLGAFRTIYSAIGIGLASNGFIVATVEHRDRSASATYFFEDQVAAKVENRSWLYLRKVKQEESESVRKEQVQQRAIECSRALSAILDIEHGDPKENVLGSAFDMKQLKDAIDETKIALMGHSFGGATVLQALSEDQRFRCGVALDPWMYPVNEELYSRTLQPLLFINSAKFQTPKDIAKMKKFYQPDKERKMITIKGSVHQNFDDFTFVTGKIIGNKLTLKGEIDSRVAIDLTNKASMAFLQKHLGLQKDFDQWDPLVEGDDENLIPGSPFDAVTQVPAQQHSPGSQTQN
Procedure, shortened: as §1

ABHD6 = target: T4, ABHD6 (Mus musculus, UniProt Q8R2Y0); conditions: for inhibition at 1 µM: 1 μM inhibitor, read-out: % Inhibition at 1 μM, C = ABHD6; for inhibition at 10 µM: 10 μM inhibitor, read-out: % Inhibition at 10 μM, C = ABHD6; for IC50: mouse brain membrane fraction or cell lysates, 30 min preincubation at 37° C., read-out: Mouse (IC50 value, nM) ABHD6
T4 construct: Proteomes (mouse brain membrane fraction or cell lysates); from tissue; host or cells: mouse brain membrane fraction (or cell lysates, not specified)
T4 sequence (Q8R2Y0 1-336): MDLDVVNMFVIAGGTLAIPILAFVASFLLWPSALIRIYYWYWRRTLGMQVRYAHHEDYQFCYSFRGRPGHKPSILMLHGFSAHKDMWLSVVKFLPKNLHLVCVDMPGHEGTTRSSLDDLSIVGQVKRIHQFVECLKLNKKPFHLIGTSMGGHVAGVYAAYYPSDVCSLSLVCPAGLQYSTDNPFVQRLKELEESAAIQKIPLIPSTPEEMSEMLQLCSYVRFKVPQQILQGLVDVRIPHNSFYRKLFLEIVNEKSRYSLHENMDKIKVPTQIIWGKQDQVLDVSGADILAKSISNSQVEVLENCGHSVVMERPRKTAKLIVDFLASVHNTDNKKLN
Procedure, shortened: as §1

Structure (SMILES)	inhibition at 1 µM (MAGL) [%]	inhibition at 10 µM (MAGL) [%]	IC50 (MAGL) [nM]	inhibition at 1 µM (FAAH) [%]	inhibition at 10 µM (FAAH) [%]	IC50 (FAAH) [nM]	inhibition at 1 µM (PLA2G7) [%]	inhibition at 10 µM (PLA2G7) [%]	IC50 (PLA2G7; mouse brain membrane fraction or cell lysates, 30 min preincubation at 37° C.) [nM]	inhibition at 1 µM (ABHD6) [%]	inhibition at 10 µM (ABHD6) [%]	IC50 (ABHD6) [nM]	inhibition at 1 µM (MAGL; gel-based competitive ABPP) [%]	inhibition at 1 µM (FAAH; gel-based competitive ABPP) [%]	inhibition at 1 µM (PLA2G7; gel-based competitive ABPP) [%]	inhibition at 1 µM (ABHD6; gel-based competitive ABPP) [%]
O=C(N1CCCN(Cc2ccccc2)CC1)n1cc(C(F)(F)F)cn1 [Example 157, (4-Benzyl-1,4-diazepan-1-yl)(4-(trifluoromethyl)-1H-pyrazol-1-yl)methanone]	> 75	> 75	> 1000	> 75	> 75	100 to 1000	< 25	> 75	> 1000	> 75	> 75	> 1000	–	–	–	–
CCN(Cc1ccc(C)cc1)C(=O)n1cc(C)cn1 [Example 257, N-Ethyl-4-methyl-N-(4-methylbenzyl)-1H-pyrazole-1-carboxamide]	–	–	–	–	–	–	–	–	–	–	–	–	< 25	< 25	< 25	< 25
Cc1cc(-c2ccccc2)ccc1CN1CCN(C(=O)n2cc(C(F)(F)F)cn2)CC1 [Example 142, (4-((3-Methylbiphenyl-4-yl)methyl)piperazin-1-yl)(4-(trifluoromethyl)-1H-pyrazol-1-yl)methanone]	> 75	> 75	< 100	> 75	> 75	< 100	> 75	> 75	–	> 75	> 75	100 to 1000	–	–	–	–
O=C(c1cnn(C(=O)N2CCN(Cc3ccncc3)CC2)c1)N1CCOCC1 [Example 52, (4-(Morpholine-4-carbonyl)-1H-pyrazol-1-yl)(4-(pyridin-4-ylmethyl)piperazin-1-yl)methanone]	–	< 25	–	–	< 25	–	< 25	> 75	–	25 to 75	> 75	–	–	–	–	–
O=C(N1CCN(c2cccc(N3CCOCC3)c2)CC1)n1cc(C(F)(F)F)cn1 [Example 237, (4-(3-Morpholinophenyl)piperazin-1-yl)(4-(trifluoromethyl)-1H-pyrazol-1-yl)methanone]	> 75	> 75	–	> 75	> 75	–	> 75	> 75	–	> 75	> 75	–	–	–	–	–
N#Cc1cnn(C(=O)N2CCN(Cc3ccc(-c4ccccc4)cc3OCc3ccccc3)CC2)c1 [Example 146, 1-(4-((3-(Benzyloxy)biphenyl-4-yl)methyl)piperazine-1-carbonyl)-1H-pyrazole-4-carbonitrile]	> 75	> 75	–	> 75	> 75	–	< 25	> 75	–	> 75	> 75	–	–	–	–	–
CC(=O)N1CCCN(C(=O)n2cc(C)cn2)CC1 [Example 165, 1-(4-(4-Methyl-1H-pyrazole-1-carbonyl)-1,4-diazepan-1-yl)ethanone]	–	< 25	–	–	25 to 75	–	–	< 25	–	–	< 25	–	–	–	–	–
O=C(N1CCN(Cc2ccc(OCc3ccccc3)cc2)CC1)n1cccn1 [Example 19, (4-(4-(Benzyloxy)benzyl)piperazin-1-yl)(1H-pyrazol-1-yl)methanone]	25 to 75	> 75	–	> 75	> 75	–	< 25	< 25	–	< 25	> 75	–	–	–	–	–
O=C(NCCCc1ccccc1)n1cccn1 [Example 31, N-(3-Phenylpropyl)-1H-pyrazole-1-carboxamide]	–	< 25	–	–	< 25	–	–	< 25	–	–	< 25	–	–	–	–	–
CCN(Cc1cccc(Cl)c1)C(=O)n1cc(Cl)cn1 [Example 134, 4-Chloro-N-(3-chlorobenzyl)-N-ethyl-1H-pyrazole-1-carboxamide]	25 to 75	> 75	> 1000	> 75	> 75	100 to 1000	< 25	< 25	–	< 25	> 75	> 1000	–	–	–	–
O=C(c1cnn(C(=O)N2CCN(Cc3nccs3)CC2)c1)N1CCCC1 [Example 83, Pyrrolidin-1-yl(1-(4-(thiazol-2-ylmethyl)piperazine-1-carbonyl)-1H-pyrazol-4-yl)methanone]	< 25	< 25	–	< 25	> 75	–	< 25	> 75	–	< 25	> 75	–	–	–	–	–
O=C(N1CCN(Cc2ccc(Oc3ccccc3)cc2)CC1)n1cccn1 [Example 16, (4-(4-Phenoxybenzyl)piperazin-1-yl)(1H-pyrazol-1-yl)methanone]	> 75	> 75	–	< 25	> 75	–	< 25	> 75	–	> 75	> 75	–	–	–	–	–
O=C(N1CCN(C(c2ccc(Cl)cc2)c2ccc(Cl)cc2)CC1)n1cc(-c2ccccc2C(F)(F)F)cn1 [Example 123, (4-(Bis(4-chlorophenyl)methyl)piperazin-1-yl)(4-(2-(trifluoromethyl)phenyl)-1H-pyrazol-1-yl)methanone]	–	25 to 75	–	–	< 25	–	< 25	25 to 75	–	25 to 75	> 75	–	–	–	–	–
N#Cc1cnn(C(=O)N2CCCN(Cc3cccc(OCc4ccccc4)c3)CC2)c1 [Example 300, 1-(4-(3-(Benzyloxy)benzyl)-1,4-diazepane-1-carbonyl)-1H-pyrazole-4-carbonitrile]	–	–	–	–	–	–	–	–	–	–	–	–	> 75	> 75	< 25	> 75
O=C(N1CCN(Cc2ccc3ccccc3c2)CC1)n1cc(Br)cn1 [Example 13, (4-Bromo-1H-pyrazol-1-yl)(4-(naphthalen-2-ylmethyl)piperazin-1-yl)methanone]	> 75	> 75	–	> 75	> 75	–	> 75	> 75	–	> 75	> 75	–	–	–	–	–

From patent US10093630B2, “Pyrazole compounds and methods of making and using same” (ABIDE THERAPEUTICS, INC., priority 2014, dated 2018)
